This is an account of results in patent US12492184B2, “Heteroaryl compounds, preparation methods and uses thereof” (InventisBio Co., Ltd., priority 2020, dated 2025).

The assay deals with HEK-Blue IL23 Reporter. As to the kind of experiment: HEK-Blue IL-23 STAT3 Reporter Assay. It counts as cell-based, human. As to conditions: SEAP read with QUANTI-Blue at OD655. The procedure: HEK-Blue IL23 cells (InvivoGen catalog #HKB-IL23) are designed for the detection of bioactive IL-23 by monitoring the activation of the STAT3 pathway. They were generated by stably introducing the genes for the human IL-23 receptor, STAT3, and the SEAP (secreted embryonic alkaline phosphatase) reporter gene into human HEK293 cell line.
Briefly, around 50,000 cells in DMEM medium supplemented with 10% heat inactivated FBS (˜180 ul) were seeded into each well and incubate for 48 hours at 37° C. with 5% CO2 in air. On day 3, one microliter of compound and 20 ul IL-23 were transferred to the assay plate respectively. The plate was left in the 37° C. incubator overnight. Two microliter of cell supernatant was transferred to a 384-well plate, and 18 ul of resuspended QUANTI-Blue solution was added to each well. SLAP levels were determined using Tecan Spark at OD655.
Cells with no IL23 added were used as Low control. Cells stimulated with IL23 were used as High control. Inhibition rate was calculated with the formula of % inhibition=100*(High control−Treated Well)/(High Control−Low control). IL-23 reporter assay inhibition IC50 was calculated with the equation of Y=Bottom+(Top-Bottom)/(1+10^((Log IC50−X)*HillSlope)).
(In general: In a reporter assay the amount or activity of a reporter protein is the signal.)

[1] abbreviates: Homo sapiens, HEK-Blue IL-23, HEK-Blue IL23 cells stimulated with IL-23 overnight.
Setting [2] is: HEK-Blue IL23 cells stimulated with IL-23 overnight.

For the compound `[2H]C([2H])([2H])NC(=O)c1nnc(NC(=O)[C@H]2CC23CC3)cc1Nc1ncc(C(F)(F)F)cc1S(C)(=O)=O` [Compound 32], 5.3 nM corresponded to half-maximal inhibition under setting [1] (IC50).

As for `[2H]C([2H])([2H])NC(=O)c1nnc(NC(=O)C2CC2)cc1Nc1ncc(SC(F)(F)F)cc1S(C)(=O)=O` (single isomer, unassigned) [Compound 54], the midpoint of inhibition under setting [1], the IC50, lay at 1.5 nM.

As to `[2H]C([2H])([2H])NC(=O)c1nnc(NC(=O)C2CC2)cc1Nc1ncc(OC[C@H](C)OC=O)cc1S(C)(=O)=O` [Compound 74], under setting [1], half-maximal inhibition (IC50) was put at 2.2 nM.

For `[2H]C([2H])([2H])NC(=O)c1nnc(-c2cc(C)n[nH]2)cc1Nc1ncccc1S(C)(=O)=O` [Compound 25], the IC50 (as a rule, the concentration needed to halve the response being measured) under setting [1] was ≥ 1000 nM.

With `[2H]C([2H])([2H])NC(=O)c1nnc(NC(=O)[C@H]2CC23CC3)cc1Nc1ncc(N2CCC2)cc1S(C)(=O)=O` [Compound 133], under setting [1], the IC50 came out at 1.2 nM.

Under setting [1], `[2H]C([2H])([2H])NC(=O)c1nnc(NC(=O)OC)cc1Nc1ncc(OC)cc1S(C)(=O)=O` [Compound 19] came in with an IC50 of 20.9 nM.

As for `[2H]C([2H])([2H])NC(=O)c1nnc(NC(=O)C2CC2)cc1Nc1ncc(OCC(C)(C)O)cc1S(C)(=O)=O` [Compound 66], inhibition under setting [1] was half-maximal at 5.7 nM (IC50).

As for `[2H]C([2H])([2H])NC(=O)c1nnc(C(F)F)cc1Nc1ncccc1S(C)(=O)=O` [Compound 49], under setting [1], the IC50 is > 1000 nM.

`[2H]C([2H])([2H])NC(=O)c1nnc(NC(=O)[C@@H]2CC23CC3)cc1Nc1ncc(OC)cc1S(C)(=O)=O` [Compound 2]: the IC50 under setting [1] was found to be 4.3 nM.

The compound `CS(=O)(=O)c1cccnc1Nc1cc(NC(=O)C2CC23CC3)ncc1C(=O)C1CC1` (centres unmarked) [Compound 12] returned an IC50 under setting [1] of 140 nM.

For `[2H]C([2H])([2H])NC(=O)c1nnc(NC(=O)C2CC2(C)C)cc1Nc1ncc(OC)cc1S(C)(=O)=O` (centres unmarked) [Compound 27], the IC50 under setting [1] stood at 24.2 nM.

Regarding `[2H]C([2H])([2H])NC(=O)c1nnc(NC(=O)[C@H]2CC23CC3)cc1Nc1ccc(Cl)cc1S(C)(=O)=O` [Compound 9], the 50% inhibitory concentration (IC50) under setting [1] worked out at 51 nM.

Turning to `[2H]C([2H])([2H])NC(=O)c1nnc(NC(=O)C2CC2)cc1Nc1ncc(OCCN(C)C)cc1S(C)(=O)=O` [Compound 61], the IC50 under setting [1] was found to be 19.9 nM.

Compound `[2H]C([2H])([2H])NC(=O)c1nnc(NC(=O)C2CC(OC)C2)cc1Nc1ncc(OC)cc1S(C)(=O)=O` (centres unmarked) [Compound 36] showed an IC50 under setting [1] of 5.6 nM.

With `[2H]C([2H])([2H])NC(=O)c1cnc(NC(=O)C2CC2)cc1Nc1ncc(OC(C)C)cc1S(C)(=O)=O` [Compound 81], under setting [1], the IC50 amounted to 0.9 nM.

For the compound `[2H]C([2H])([2H])NC(=O)c1nnc(NC(=O)[C@H]2CC23CC3)cc1Nc1ncc(N2CCOC[C@H]2C)cc1S(C)(=O)=O` [Compound 121], under setting [1], the IC50 stood at 1.2 nM.

Turning to `[2H]C([2H])([2H])NC(=O)c1nnc(NC(=O)[C@H]2CC23CC3)cc1Nc1nc(C)c(OC)cc1S(C)(=O)=O` [Compound 100], under setting [1], the IC50 worked out at 2.1 nM.

As to `[2H]C([2H])([2H])NC(=O)c1nnc(NC(=O)[C@H]2C[C@@H](NC)C2)cc1Nc1ncc(C2CC2)cc1S(C)(=O)=O` [Compound 86], the midpoint of inhibition under setting [1], the IC50, lay at 30.8 nM.

In turn, `[2H]C([2H])([2H])NC(=O)c1nnc(NC(=O)[C@H]2CC23CC3)cc1Nc1ncc(Cl)cc1S(C)(=O)=O` [Compound 102] displayed an IC50 under setting [1] of 3.7 nM.

For `[2H]C([2H])([2H])NC(=O)c1nnc(NC2CC2)cc1Nc1ncccc1S(C)(=O)=O` [Compound 22], half-maximal inhibition under setting [1] (IC50) required 106 nM.

On to `[2H]C([2H])([2H])NC(=O)c1nnc(NC(=O)C2CC23CC3)cc1Nc1nccc(C)c1S(C)(=O)=O` (centres unmarked) [Compound 4], for which, under setting [1], the IC50 was found to be 39.3 nM.

For the compound `[2H]C([2H])([2H])NC(=O)c1nnc(NC(=O)[C@H]2CC23CC3)cc1Nc1ncc(SC(F)(F)F)cc1S(C)(=O)=O` [Compound 99], the IC50 under setting [1] was 15.6 nM.

Consider `[2H]C([2H])([2H])NC(=O)c1nnc(NC(=O)N2CCCC2)cc1Nc1nccc2c1S(C)(=O)=NC2` (centres unmarked) [Compound 93], for which the IC50 under setting [2] amounted to 13.6 nM.

`[2H]C([2H])([2H])NC(=O)c1nnc(NC(=O)[C@H]2CC23CC3)cc1Nc1nc(C2CC2)sc1S(C)(=O)=O` [Compound 123] had an IC50 under setting [1] of 19.8 nM.

Compound `[2H]C([2H])([2H])NC(=O)c1nnc(NC(=O)[C@H]2CC23CC3)cc1Nc1ncccc1S(C)(=O)=NC` (some centres unmarked) [Compound 98] gave a half-maximal inhibitory concentration (IC50) under setting [2] of 188 nM.

In the case of `[2H]C([2H])([2H])NC(=O)c1nnc(NC(=O)[C@H]2CC23CC3)cc1Nc1nc2c(cc1S(C)(=O)=O)CN(C)CC2` [Compound 41], under setting [1], inhibition was half-maximal at 12.7 nM (IC50).

For `[2H]C([2H])([2H])NC(=O)c1nnc(NC(=O)[C@H]2CC23CC3)cc1Nc1nccc2c1S(C)(=O)=NC2` (some centres unmarked) [Compound 130], the IC50 under setting [2] was 59.9 nM.

Under setting [1], `[2H]C([2H])([2H])NC(=O)c1nnc(NC(=O)C2CC2)cc1Nc1ncc(C2(F)COC2)cc1S(C)(=O)=O` [Compound 62] displayed an IC50 of 71.9 nM.

On to `[2H]C([2H])([2H])NC(=O)c1nnc(NC(=O)C2CC2)cc1Nc1ncc(OC[C@H](C)OC(F)F)cc1S(C)(=O)=O` [Compound 73], for which, under setting [1], 1.1 nM corresponded to half-maximal inhibition (IC50).

As to `[2H]C([2H])([2H])NC(=O)c1nnc(NC(=O)[C@H]2CC23CC3)cc1Nc1nc(C)sc1S(C)(=O)=O` [Compound 127], under setting [1], half-maximal inhibition (IC50) required 6.4 nM.

Under setting [2], `[2H]C([2H])([2H])NC(=O)c1nnc(NC(=O)[C@H]2CC23CC3)cc1Nc1ncccc1S(C)(=O)=NC` (single isomer, unassigned) [Compound 97] yielded an IC50 of 1.4 nM.

`[2H]C([2H])([2H])NC(=O)c1nnc(NC(=O)[C@H]2CC23CC3)cc1Nc1ncc(C2CC2)cc1S(C)(=O)=O` [Compound 5] yielded an IC50 under setting [1] of 1.7 nM.

On to `[2H]C([2H])([2H])NC(=O)c1nnc(Nc2cnc(C(C)(C)O)nc2)cc1Nc1ncc(OC)cc1S(C)(=O)=O` [Compound 50], for which the IC50 under setting [1] is 9.3 nM.

For `[2H]C([2H])([2H])NC(=O)c1cnc(NC(=O)C2CC2)cc1Nc1ncc(F)cc1S(C)(=O)=O` (single isomer, unassigned) [Compound 55], it took 1.5 nM to reach half-maximal inhibition under setting [1] (IC50).

Under setting [1], `[2H]C([2H])([2H])NC(=O)c1nnc(NC(=O)C2CC2)cc1Nc1ncc(OCCOC=O)cc1S(C)(=O)=O` [Compound 79] yielded an IC50 of 3.3 nM.

For `[2H]C([2H])([2H])NC(=O)c1nnc(NC(=O)[C@H]2CC23CC3)cc1Nc1ncc(C)cc1S(C)(=O)=O` [Compound 33], the IC50 under setting [1] was determined as 0.9 nM.

Take `[2H]C([2H])([2H])NC(=O)c1nnc(NC(=O)[C@H]2CC23CC3)cc1Nc1ncc(C2(F)COC2)cc1S(C)(=O)=O` [Compound 109]: under setting [1], the midpoint of inhibition, the IC50, lay at 284 nM.

As to `[2H]C([2H])([2H])NC(=O)c1cnc(NC(=O)[C@H]2CC23CC3)cc1Nc1ncc(Cl)cc1S(C)(=O)=O` [Compound 119], the concentration for half-maximal inhibition (IC50) under setting [1] is 6.2 nM.

The compound `[2H]C([2H])([2H])NC(=O)c1nnc(NC(=O)C2CC2)cc1Nc1ncc(O[C@H](C)COC)cc1S(C)(=O)=O` [Compound 70] gave an IC50 under setting [1] of 1.3 nM.

As to `[2H]C([2H])([2H])NC(=O)c1nnc(NC(=O)C2CCCC2)cc1Nc1ncc(OC)cc1S(C)(=O)=O` [Compound 17], under setting [1], the IC50 was determined as 13.8 nM.

Take `[2H]C([2H])([2H])CC(=O)c1nnc(NC(=O)[C@H]2CC23CC3)cc1Nc1ncccc1S(C)(=O)=O` [Compound 96]: under setting [1], the IC50 turned out to be 189 nM.

In the case of `[2H]C([2H])([2H])NC(=O)c1nnc(NC(=O)[C@H]2CC23CC3)cc1Nc1ncc(OCC(C)(C)O)cc1S(C)(=O)=O` [Compound 111], the IC50 under setting [1] stood at 7.5 nM.

Compound `[2H]C([2H])([2H])NC(=O)c1nnc(NC(=O)C2CC2)cc1Nc1ncc(N2CCOC[C@@H]2C)cc1S(C)(=O)=O` [Compound 82] yielded an IC50 under setting [1] of 9 nM.

In the case of `[2H]C([2H])([2H])NC(=O)c1nnc(NC(=O)C2CC2)cc1Nc1ncc(OC[C@@H](C)OC(F)F)cc1S(C)(=O)=O` [Compound 75], under setting [1], the IC50 was 1.6 nM.

Under setting [1], `[2H]C([2H])([2H])NC(=O)c1nnc(NC(=O)[C@@H]2CC23CC3)cc1Nc1ncc(OCCOC(F)F)cc1S(C)(=O)=O` [Compound 116] gave an IC50 of 3 nM.

On to `[2H]C([2H])([2H])NC(=O)c1nnc(NC(=O)[C@H]2CC23CC3)cc1Nc1ncc(N2CCOC[C@@H]2C)cc1S(C)(=O)=O` [Compound 122], for which, under setting [1], the IC50 came out at 16.1 nM.

On to `[2H]C([2H])([2H])NC(=O)c1nnc(NC(=O)[C@H]2CC23CC3)cc1Nc1ncc(OC(F)(F)F)cc1S(C)(=O)=O` [Compound 132], for which the IC50 under setting [1] is 6.5 nM.

For `[2H]C([2H])([2H])NC(=O)c1nnc(NC(=O)C2(C)CC2)cc1Nc1ncc(OC)cc1S(C)(=O)=O` [Compound 28], under setting [1], the IC50 worked out at 35.1 nM.

For `[2H]C([2H])([2H])NC(=O)c1nnc(NC(=O)[C@H]2C[C@@H](OC)C2)cc1Nc1ncc(C2CC2)cc1S(C)(=O)=O` [Compound 84], the IC50 under setting [1] stood at 4.1 nM.

Compound `[2H]C([2H])([2H])NC(=O)c1nnc(NC(=O)c2ccc(F)cc2)cc1Nc1ncc(OC)cc1S(C)(=O)=O` [Compound 29] showed an IC50 under setting [1] of 350 nM.

Regarding `[2H]C([2H])([2H])NC(=O)c1nnc(NC(=O)[C@H]2CC23CC3)cc1Nc1ncc(OCCOC)cc1S(C)(=O)=O` [Compound 107], the midpoint of inhibition under setting [1], the IC50, lay at 0.8 nM.

Turning to `[2H]C([2H])([2H])NC(=O)c1nnc(NC(=O)[C@H]2CC23CC3)cc1Nc1ncc(CC)cc1S(C)(=O)=O` [Compound 44], the IC50 under setting [1] amounted to 1 nM.

Take `[2H]C([2H])([2H])NC(=O)c1nnc(NC(=O)[C@H]2CC23CC3)cc1Nc1ncc(OCC)cc1S(C)(=O)=O` [Compound 42]: half-maximal inhibition under setting [1] (IC50) was put at 0.58 nM.
